What all share (test): biochemical
Common to all, as to design: species or system human cell line lysate

For test [1], the target named is Beta-adrenergic receptor kinase 2 ; GRK3 ; P35626 (Homo sapiens, UniProt P35626).
The target in test [2] is Casein kinase I isoform gamma-1 ; CSNK1G1 ; Q9HCP0 (Homo sapiens, UniProt Q9HCP0).
Test [3] concerns the target Citron Rho-interacting kinase ; CIT ; O14578 (Homo sapiens, UniProt O14578).
The target of test [4] is T1, Dual specificity mitogen-activated protein kinase kinase 5 ; MAP2K5 ; Q13163 (Homo sapiens, UniProt Q13163).
T1 sequence (Q13163 1-448): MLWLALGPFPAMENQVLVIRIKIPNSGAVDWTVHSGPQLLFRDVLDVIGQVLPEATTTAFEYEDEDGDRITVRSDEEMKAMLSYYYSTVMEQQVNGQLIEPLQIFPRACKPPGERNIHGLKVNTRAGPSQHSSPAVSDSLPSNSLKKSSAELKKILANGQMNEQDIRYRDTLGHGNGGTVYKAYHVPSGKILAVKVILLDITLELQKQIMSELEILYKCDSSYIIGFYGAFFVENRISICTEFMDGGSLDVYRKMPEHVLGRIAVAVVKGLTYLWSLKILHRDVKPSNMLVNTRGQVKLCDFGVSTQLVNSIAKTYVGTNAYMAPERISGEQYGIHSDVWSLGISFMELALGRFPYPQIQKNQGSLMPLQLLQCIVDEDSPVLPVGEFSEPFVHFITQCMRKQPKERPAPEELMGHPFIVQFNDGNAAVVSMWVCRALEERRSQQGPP

Test [5] addresses Dual specificity protein kinase CLK4 ; CLK4 ; Q9HAZ1 (Homo sapiens, UniProt Q9HAZ1).
The target of test [6] is EKC/KEOPS complex subunit TP53RK ; TP53RK ; Q96S44 (Homo sapiens, UniProt Q96S44).
Sequence of EKC/KEOPS complex subunit TP53RK ; TP53RK ; Q96S44 (Q96S44 whole entry, canonical isoform, one chain of several): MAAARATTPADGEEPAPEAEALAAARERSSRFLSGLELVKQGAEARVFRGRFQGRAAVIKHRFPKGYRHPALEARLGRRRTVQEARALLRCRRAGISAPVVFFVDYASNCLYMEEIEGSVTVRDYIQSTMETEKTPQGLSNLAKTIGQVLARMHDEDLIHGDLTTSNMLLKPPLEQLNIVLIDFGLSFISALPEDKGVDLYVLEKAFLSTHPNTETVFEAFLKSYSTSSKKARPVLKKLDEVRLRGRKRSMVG
The target in test [7] is Isoform 2 of Tyrosine-protein kinase Fyn ; FYN ; P06241-2 (Homo sapiens, UniProt P06241).
Test [8] addresses Ketosamine-3-kinase ; FN3KRP ; Q9HA64 (Homo sapiens, UniProt Q9HA64).
Test [9] addresses MAP/microtubule affinity-regulating kinase 3 ; MARK3 ; P27448 (Homo sapiens, UniProt P27448).
The target in test [10] is Mitotic checkpoint serine/threonine-protein kinase BUB1 ; BUB1 ; O43683 (Homo sapiens, UniProt O43683).
The target of test [11] is SNF-related serine/threonine-protein kinase ; SNRK ; Q9NRH2 (Homo sapiens, UniProt Q9NRH2).
Sequence of SNF-related serine/threonine-protein kinase ; SNRK ; Q9NRH2 (Q9NRH2 whole entry, one chain of several): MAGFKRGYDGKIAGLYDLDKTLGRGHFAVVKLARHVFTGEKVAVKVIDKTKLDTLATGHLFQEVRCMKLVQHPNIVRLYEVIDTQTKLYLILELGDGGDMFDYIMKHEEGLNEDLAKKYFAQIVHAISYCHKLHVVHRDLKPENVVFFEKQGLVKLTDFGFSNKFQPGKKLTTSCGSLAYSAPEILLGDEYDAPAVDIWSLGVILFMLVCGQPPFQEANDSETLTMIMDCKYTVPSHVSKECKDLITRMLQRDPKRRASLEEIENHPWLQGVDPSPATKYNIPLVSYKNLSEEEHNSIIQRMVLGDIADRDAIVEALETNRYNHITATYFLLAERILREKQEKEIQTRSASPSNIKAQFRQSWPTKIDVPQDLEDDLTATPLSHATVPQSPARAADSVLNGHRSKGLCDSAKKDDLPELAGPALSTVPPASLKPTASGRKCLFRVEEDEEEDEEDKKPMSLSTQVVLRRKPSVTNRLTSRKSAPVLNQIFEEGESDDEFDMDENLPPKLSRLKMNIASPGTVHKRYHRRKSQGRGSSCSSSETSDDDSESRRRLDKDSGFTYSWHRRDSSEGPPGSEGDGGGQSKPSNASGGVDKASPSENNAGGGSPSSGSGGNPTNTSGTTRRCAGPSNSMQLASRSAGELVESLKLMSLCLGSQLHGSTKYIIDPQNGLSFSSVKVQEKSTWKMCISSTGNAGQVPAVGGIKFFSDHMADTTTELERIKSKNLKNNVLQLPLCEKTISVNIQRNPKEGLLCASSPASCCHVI
In test [12] the target is Serine/threonine-protein kinase D3 ; PRKD3 ; O94806 (Homo sapiens, UniProt O94806).
Sequence of Serine/threonine-protein kinase D3 ; PRKD3 ; O94806 (O94806 whole entry, one chain of several): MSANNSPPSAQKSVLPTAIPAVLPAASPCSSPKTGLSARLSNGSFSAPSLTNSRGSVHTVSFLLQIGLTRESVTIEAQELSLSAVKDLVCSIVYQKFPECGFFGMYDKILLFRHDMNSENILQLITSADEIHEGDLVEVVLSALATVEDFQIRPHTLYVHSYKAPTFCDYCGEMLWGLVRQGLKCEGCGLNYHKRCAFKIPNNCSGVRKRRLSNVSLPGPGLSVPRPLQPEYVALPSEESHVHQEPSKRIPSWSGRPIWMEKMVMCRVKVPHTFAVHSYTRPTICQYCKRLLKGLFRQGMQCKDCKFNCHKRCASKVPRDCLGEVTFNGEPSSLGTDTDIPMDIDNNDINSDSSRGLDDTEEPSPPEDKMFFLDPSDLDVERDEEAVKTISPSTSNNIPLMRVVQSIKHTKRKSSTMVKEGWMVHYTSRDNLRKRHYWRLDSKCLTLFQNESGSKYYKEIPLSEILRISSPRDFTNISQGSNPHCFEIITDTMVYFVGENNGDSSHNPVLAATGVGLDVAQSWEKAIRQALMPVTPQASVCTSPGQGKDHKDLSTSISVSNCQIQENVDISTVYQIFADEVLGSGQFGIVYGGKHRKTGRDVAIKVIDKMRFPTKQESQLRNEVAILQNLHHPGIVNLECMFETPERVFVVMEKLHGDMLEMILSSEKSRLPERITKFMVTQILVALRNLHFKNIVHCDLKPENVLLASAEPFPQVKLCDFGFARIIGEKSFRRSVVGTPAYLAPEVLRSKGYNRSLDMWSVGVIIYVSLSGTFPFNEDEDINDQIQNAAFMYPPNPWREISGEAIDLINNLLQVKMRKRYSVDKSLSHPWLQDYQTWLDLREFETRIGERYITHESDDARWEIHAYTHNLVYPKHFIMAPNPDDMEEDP
Test [13] has as its target Serine/threonine-protein kinase MRCK alpha ; CDC42BPA ; Q5VT25 (Homo sapiens, UniProt Q5VT25).
Test [14] deals with Serine/threonine-protein kinase MRCK beta ; CDC42BPB ; Q9Y5S2 (Homo sapiens, UniProt Q9Y5S2).
Sequence of Serine/threonine-protein kinase MRCK beta ; CDC42BPB ; Q9Y5S2 (Q9Y5S2 whole entry, one chain of several): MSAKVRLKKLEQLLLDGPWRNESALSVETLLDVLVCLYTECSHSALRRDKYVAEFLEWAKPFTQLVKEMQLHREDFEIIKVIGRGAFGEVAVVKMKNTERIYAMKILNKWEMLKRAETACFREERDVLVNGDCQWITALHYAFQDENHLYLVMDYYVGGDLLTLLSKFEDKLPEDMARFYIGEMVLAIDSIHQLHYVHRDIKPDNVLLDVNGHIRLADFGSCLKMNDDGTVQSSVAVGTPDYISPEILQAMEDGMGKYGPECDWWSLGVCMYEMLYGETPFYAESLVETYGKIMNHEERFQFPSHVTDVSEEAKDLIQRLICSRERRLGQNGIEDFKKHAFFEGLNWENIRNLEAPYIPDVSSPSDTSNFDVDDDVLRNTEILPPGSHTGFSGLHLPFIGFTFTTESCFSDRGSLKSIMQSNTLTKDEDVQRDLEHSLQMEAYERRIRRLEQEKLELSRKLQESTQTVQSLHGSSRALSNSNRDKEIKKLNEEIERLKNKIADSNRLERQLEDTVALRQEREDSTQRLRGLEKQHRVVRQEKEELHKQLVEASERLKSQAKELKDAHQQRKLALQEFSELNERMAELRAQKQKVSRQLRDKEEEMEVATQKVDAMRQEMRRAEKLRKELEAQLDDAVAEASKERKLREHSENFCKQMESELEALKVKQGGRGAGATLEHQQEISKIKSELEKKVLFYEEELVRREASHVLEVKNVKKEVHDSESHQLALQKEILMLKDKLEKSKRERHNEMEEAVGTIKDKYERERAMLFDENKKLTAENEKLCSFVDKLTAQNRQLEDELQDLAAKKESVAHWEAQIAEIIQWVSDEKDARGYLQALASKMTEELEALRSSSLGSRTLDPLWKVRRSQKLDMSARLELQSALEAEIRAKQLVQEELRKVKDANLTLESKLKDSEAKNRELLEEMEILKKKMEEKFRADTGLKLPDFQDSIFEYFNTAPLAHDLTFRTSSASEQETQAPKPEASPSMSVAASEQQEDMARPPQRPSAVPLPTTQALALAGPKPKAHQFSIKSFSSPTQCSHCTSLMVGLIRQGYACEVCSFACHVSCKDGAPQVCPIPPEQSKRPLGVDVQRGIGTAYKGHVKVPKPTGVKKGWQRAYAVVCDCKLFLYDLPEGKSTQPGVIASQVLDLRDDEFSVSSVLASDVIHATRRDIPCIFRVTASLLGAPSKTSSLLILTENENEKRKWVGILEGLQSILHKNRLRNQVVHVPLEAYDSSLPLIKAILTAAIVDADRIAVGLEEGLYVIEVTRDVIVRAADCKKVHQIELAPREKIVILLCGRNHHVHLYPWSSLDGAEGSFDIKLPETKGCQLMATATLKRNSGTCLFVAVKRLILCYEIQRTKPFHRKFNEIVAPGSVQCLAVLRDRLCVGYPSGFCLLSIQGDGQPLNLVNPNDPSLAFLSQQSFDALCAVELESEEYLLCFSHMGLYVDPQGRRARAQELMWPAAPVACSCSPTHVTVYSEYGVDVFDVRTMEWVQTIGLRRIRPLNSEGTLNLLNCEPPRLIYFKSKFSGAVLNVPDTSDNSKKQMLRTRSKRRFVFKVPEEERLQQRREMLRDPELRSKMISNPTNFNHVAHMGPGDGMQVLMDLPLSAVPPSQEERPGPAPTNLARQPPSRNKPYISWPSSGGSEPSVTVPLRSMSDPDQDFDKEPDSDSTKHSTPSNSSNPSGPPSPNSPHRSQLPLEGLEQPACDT
Test [15] deals with T2, Tyrosine-protein kinase Tec ; TEC ; P42680 (Homo sapiens, UniProt P42680).
T2 sequence (P42680 1-631): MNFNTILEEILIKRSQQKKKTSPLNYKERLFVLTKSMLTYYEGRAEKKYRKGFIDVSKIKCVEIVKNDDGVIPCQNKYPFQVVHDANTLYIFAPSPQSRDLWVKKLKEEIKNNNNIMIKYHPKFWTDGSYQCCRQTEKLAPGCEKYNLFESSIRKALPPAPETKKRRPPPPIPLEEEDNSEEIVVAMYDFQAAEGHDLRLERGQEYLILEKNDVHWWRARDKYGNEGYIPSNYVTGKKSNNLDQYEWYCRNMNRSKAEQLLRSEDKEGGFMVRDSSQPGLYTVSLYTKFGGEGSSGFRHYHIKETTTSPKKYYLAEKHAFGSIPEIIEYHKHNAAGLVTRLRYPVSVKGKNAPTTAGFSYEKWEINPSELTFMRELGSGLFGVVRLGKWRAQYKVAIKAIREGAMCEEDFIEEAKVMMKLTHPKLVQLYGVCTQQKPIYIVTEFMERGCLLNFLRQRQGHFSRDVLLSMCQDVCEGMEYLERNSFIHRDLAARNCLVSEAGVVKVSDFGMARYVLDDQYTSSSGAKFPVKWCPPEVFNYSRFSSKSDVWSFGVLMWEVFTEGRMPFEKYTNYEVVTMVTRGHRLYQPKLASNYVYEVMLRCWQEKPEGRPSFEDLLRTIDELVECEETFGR

The target of test [16] is Vascular endothelial growth factor receptor 3 ; FLT4 ; P35916 (Homo sapiens, UniProt P35916).
Where [17] appears, read: read-out: BAY-1251152 (10 µM) / %Intensity relative to DMSO.
[18] abbreviates: read-out: BAY-1143572 (10 µM) / %Intensity relative to DMSO.

Molecules are shown by their SMILES. Where two headings read alike, the source gives them in different places.

Sequence of MAP/microtubule affinity-regulating kinase 3 ; MARK3 ; P27448 (P27448 whole entry, one chain of several): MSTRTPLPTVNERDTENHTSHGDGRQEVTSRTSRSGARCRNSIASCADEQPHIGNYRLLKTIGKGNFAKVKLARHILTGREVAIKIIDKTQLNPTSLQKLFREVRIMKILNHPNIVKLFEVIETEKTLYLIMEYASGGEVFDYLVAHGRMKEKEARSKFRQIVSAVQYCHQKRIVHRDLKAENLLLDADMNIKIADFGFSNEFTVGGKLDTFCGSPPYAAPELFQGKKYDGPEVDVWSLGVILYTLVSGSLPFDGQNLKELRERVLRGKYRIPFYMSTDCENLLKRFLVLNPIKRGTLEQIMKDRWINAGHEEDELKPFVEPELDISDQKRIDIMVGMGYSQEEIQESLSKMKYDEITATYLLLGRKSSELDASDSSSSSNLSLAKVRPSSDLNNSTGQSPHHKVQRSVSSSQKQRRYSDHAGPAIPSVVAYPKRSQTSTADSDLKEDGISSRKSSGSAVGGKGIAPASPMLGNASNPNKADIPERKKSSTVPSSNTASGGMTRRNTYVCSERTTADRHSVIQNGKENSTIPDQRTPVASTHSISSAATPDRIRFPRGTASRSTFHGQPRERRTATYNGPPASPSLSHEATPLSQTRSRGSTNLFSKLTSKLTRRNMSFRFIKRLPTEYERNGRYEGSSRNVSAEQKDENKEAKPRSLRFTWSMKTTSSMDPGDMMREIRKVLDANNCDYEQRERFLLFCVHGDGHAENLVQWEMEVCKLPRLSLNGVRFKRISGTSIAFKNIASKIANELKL
Sequence of Beta-adrenergic receptor kinase 2 ; GRK3 ; P35626 (P35626 whole entry, canonical isoform): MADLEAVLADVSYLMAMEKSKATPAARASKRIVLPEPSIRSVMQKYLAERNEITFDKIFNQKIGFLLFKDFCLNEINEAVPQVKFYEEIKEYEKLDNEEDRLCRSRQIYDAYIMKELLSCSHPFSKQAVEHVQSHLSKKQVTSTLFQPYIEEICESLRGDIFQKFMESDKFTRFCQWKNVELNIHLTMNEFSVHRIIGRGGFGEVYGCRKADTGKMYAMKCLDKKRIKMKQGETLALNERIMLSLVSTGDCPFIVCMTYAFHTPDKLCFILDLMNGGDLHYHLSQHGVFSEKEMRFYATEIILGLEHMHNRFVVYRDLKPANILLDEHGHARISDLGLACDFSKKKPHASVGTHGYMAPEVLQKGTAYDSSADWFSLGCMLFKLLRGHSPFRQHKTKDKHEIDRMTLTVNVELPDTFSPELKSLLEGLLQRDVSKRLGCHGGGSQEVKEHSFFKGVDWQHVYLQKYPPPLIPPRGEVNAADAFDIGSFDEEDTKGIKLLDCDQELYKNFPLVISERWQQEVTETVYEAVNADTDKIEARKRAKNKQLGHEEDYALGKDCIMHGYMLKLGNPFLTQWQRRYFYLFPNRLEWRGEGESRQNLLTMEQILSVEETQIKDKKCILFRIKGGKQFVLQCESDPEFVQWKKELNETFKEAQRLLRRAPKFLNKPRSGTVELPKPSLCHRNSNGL

For the compound `COc1cc(F)ccc1-c1cc(Nc2cc(CS(C)(=N)=O)ccn2)ncc1F` (centres unmarked) [BAY-1251152], the remaining activity at 10 µM was 83.7% in test [1] (setting [17]); 163% in test [2] (setting [17]); 92.5% in [3] (setting [17]); 101% in [4] (setting [17]); 133% in [5] (setting [17]); 118% in test [6] (setting [17]). The remaining activity at 10 µM stood at 108% in test [7] (setting [17]); 114% in test [8] (setting [17]); 100% in test [9] (setting [17]); 106% in [10] (setting [17]); 147% in test [11] (setting [17]); 102% in [12] (setting [17]). Further, the remaining activity at 10 µM was found to be 107% in test [13] (setting [17]), 101% in [14] (setting [17]), 104% in [15] (setting [17]) and 104% in test [16] (setting [17]).

On to `COc1cc(F)ccc1-c1ncnc(Nc2cccc(C[S@](C)(=N)=O)c2)n1` [BAY-1143572], for which the remaining activity at 10 µM was found to be 88.8% in [1] (setting [18]); 175% in test [2] (setting [18]); 99.8% in test [3] (setting [18]); 102% in test [4] (setting [18]); 141% in test [5] (setting [18]); 122% in [6] (setting [18]). The remaining activity at 10 µM in test [7] (setting [18]) came to 106%; in [8] (setting [18]), 117%; in test [9] (setting [18]), 106%; in [10] (setting [18]), 109%; in test [11] (setting [18]) it was 191%; in test [12] (setting [18]), 108%. For the same compound, the remaining activity at 10 µM was 97.1% in test [13] (setting [18]), 102% in test [14] (setting [18]), 89.2% in [15] (setting [18]) and 115% in test [16] (setting [18]).

The values above are taken from article doi:10.1101/2024.08.13.607785v1 (biorxiv, 2024).
